From patent US11702479B2, “Anti-jagged antibodies and methods of use” (Genentech, Inc., priority 2012, dated 2023)

System: Jagged1-induced signaling through Notch1
Test: Co-culture Notch reporter (luciferase) assay, Jagged1-induced
Assay type: cell-based
Conditions: NIH-3T3 co-culture; antibody 0.4-50 μg/ml (Example 4) or 0.016-50 μg/ml (Example 5)
Protocol: To determine whether anti-Jagged antibodies can act as antagonists of Jagged-induced Notch signaling, co-culture experiments were performed essentially as described by Wu et al., Nature 464, 1052-1057 (15 April 2010). NIH-3T3 cells engineered to express Jagged1, as the Notch ligand, were co-cultured with NIH 3T3 cells that stably express Notch1 and that were transiently transfected to express a Notch-responsive TP-1 (12× CSL) firefly luciferase reporter and a constitutively expressed Renilla luciferase reporter (pRL-CMV, Promega).
Antibodies C and D, and their respective affinity-matured descendants, bind to both human and murine Jagged1, and human and murine Jagged2 (e.g., FIG. 10A). […] Signaling was induced by Jagged1 (FIG. 13B, dark gray columns) or by Jagged2 (FIG. 13B, light gray columns) and inhibition was determined as described in Example 4 using the antibodies at concentrations of 0.016-50 μg/ml. Controls included cultures that were not stimulated with ligand and not treated with antibody ([…], Untreated), not stimulated with ligand (FIG. 13B, No Stimulation or 3T3P), treated with 5-10 μg/ml isotype control antibody (FIG. 13B, agD or gD), stimulated with ligand but not treated with antibody (Stim/no AB or No Ab), treated with 5 μM of the gamma-secretase inhibitor DAPT or the DAPT vehicle control of DMSO.

## C[C@H](NC(=O)Cc1cc(F)cc(F)c1)C(=O)N[C@H]1N=C(c2ccccc2)c2ccccc2N(C)C1=O [Compound E]
  inhibition of Jagged1-induced Notch reporter expression: reduced to background levels
